Assay results: ChEMBL document CHEMBL1141190, “Synthesis and structure-activity relationships of 1,2,4-triazoles as a novel class of potent tubulin polymerization inhibitors” (Bioorg Med Chem Lett, 2005)

Assays:
A-431 [1] = assay: Cell cycle arrest in A431 cells by accumulation at G2/M phase cell at 0.1uM; format: functional; settings: Homo sapiens
Tubulin (Bos taurus) [2] = biological target: T1, Tubulin (Bos taurus) (UniProt Q6B856+Q862L2+Q862F3); settings: at 10 µM
Description: Inhibition of tubulin polymerization in bovine brain at 10 uM

A-431 [3] = assay: Cell cycle arrest in A431 cells by accumulation at G2/M phase cell; format: functional, cell-based; settings: Homo sapiens
Tubulin (Bos taurus) [4] = biological target: T1, Tubulin (Bos taurus); assay: Inhibition of tubulin polymerization in bovine brain at 3.33 uM
Tubulin = assay: Displacement of [3H]colchicine from tubulin; format: protein-complex assay, Homo sapiens
SNB-19 = assay: Antiproliferative activity against SNB19 tumor cells by sulforhodamine B assay; format: functional; settings: Homo sapiens
HCT-116 = assay: Antiproliferative activity against HCT116 tumor cells by sulforhodamine B assay; format: functional; settings: Homo sapiens
A498 = assay: Antiproliferative activity against A498 tumor cells by sulforhodamine B assay; format: functional; settings: Homo sapiens
SK-OV-3 = assay: Antiproliferative activity against SKOV3 tumor cells by sulforhodamine B assay; format: functional; settings: Homo sapiens
NCI/ADR-RES = assay: Antiproliferative activity against NCI/ADR-RES tumor cells by sulforhodamine B assay; format: functional; settings: Homo sapiens
NCI-H460 = assay: Antiproliferative activity against NCI-H460 tumor cells by sulforhodamine B assay; format: functional; settings: Homo sapiens
DLD-1 = assay: Antiproliferative activity against DLD1 tumor cells by sulforhodamine B assay; format: functional; settings: Homo sapiens
A-431 [5] = assay: Antiproliferative activity against A431 tumor cells by sulforhodamine B assay; format: functional; settings: Homo sapiens
DU-145 = assay: Antiproliferative activity against DU145 tumor cells by sulforhodamine B assay; format: functional; settings: Homo sapiens
LoVo = assay: Antiproliferative activity against LoVo tumor cells by sulforhodamine B assay; format: functional; settings: Homo sapiens

Row | Compound | inhibition at 0.1 µM (A-431 [1]) | inhibition (Tubulin (Bos taurus) [2]) | EC50 (A-431 [3]) | inhibition (Tubulin (Bos taurus) [4]) | also measured
1 | COc1ccc(/C=C\c2cc(OC)c(OC)c(OC)c2)cc1O [COMBRETASTATIN A4] | 88% |  |  |  | 
2 | Fc1ccc(CNc2ncccc2-c2n[nH]c(Nc3ccc4c(c3)OCO4)n2)cc1F | 23% | 84% |  |  | 
3 | COc1cccc(Nc2n[nH]c(-c3cccnc3Nc3ccccc3)n2)c1 |  | 4% |  |  | 
4 | COc1cc(Nc2ncccc2-c2n[nH]c(Nc3ccc(N(C)C)cc3)n2)cc(OC)c1 |  | 35% |  |  | 
5 | COc1cc(Nc2ccncc2-c2n[nH]c(Nc3ccc4c(c3)OCCO4)n2)cc(OC)c1 | 77% | 100% | 5.3 nM |  | 
6 | COc1cccc(CN(C)c2n[nH]c(-c3cccnc3Oc3cc(OC)cc(OC)c3)n2)c1 |  |  |  | 28% | 
7 | COc1cc(Nc2n[nH]c(-c3cccnc3Nc3cc(OC)cc(OC)c3)n2)cc(OC)c1 |  | 45% |  |  | 
8 | COc1ccc(CNc2n[nH]c(-c3cccnc3Nc3cc(OC)cc(OC)c3)n2)cc1 | 22% | 88% |  |  | 
9 | COc1ccc(Nc2n[nH]c(-c3cccnc3Nc3cc(OC)cc(OC)c3)n2)cc1 | 68% | 73% | 83 nM |  | 
10 | COc1cccc(Nc2n[nH]c(-c3cccnc3Oc3cc(OC)cc(OC)c3)n2)c1 | 83% | 100% | 21 nM | 100% | Ki (Tubulin): 50 nM
11 | COc1cc(Oc2ncccc2-c2n[nH]c(Nc3ccc4c(c3)OCO4)n2)cc(OC)c1OC | 86% |  | 16 nM | 89% | 
12 | COc1ccc(CNc2ncccc2-c2n[nH]c(Nc3ccc4c(c3)OCCO4)n2)cc1 | 30% | 68% |  |  | 
13 | COc1cccc(Nc2n[nH]c(-c3cccnc3Nc3cccc(OC)c3)n2)c1 |  | 9% |  |  | 
14 | COc1cc(OC)cc(Oc2ncncc2-c2n[nH]c(Nc3ccc4c(c3)OCCO4)n2)c1 | 83% |  | 44 nM | 69% | 
15 | COc1cc(OC)cc(Oc2ccncc2-c2n[nH]c(Nc3ccc4c(c3)OCCO4)n2)c1 | 86% |  | 13 nM | 96% | 
16 | COc1cc(Nc2ncccc2-c2nc(Nc3cc(OC)ccc3OC)n[nH]2)cc(OC)c1 | 20% | 33% | > 10000 nM |  | 
17 | Cc1cc(C)cc(Oc2ncccc2-c2n[nH]c(Nc3ccc4c(c3)OCO4)n2)c1 | 83% |  | 10 nM | 52% | 
18 | CN(C)c1cccc(Oc2ncccc2-c2n[nH]c(Nc3ccc4c(c3)OCO4)n2)c1 | 63% |  | 11 nM | 53% | 
19 | COc1cccc(CNc2n[nH]c(-c3cccnc3Oc3cc(OC)cc(OC)c3)n2)c1 | 32% | 100% |  |  | 
20 | COc1cc(OC)cc(Oc2ncccc2-c2n[nH]c(Nc3ccc(N(C)C)cc3)n2)c1 | 86% | 98% | 31 nM | 76% | 
21 | COc1cc(Nc2n[nH]c(-c3cccnc3Oc3cc(OC)cc(OC)c3)n2)cc(OC)c1 | 87% | 99% | 23 nM | 73% | 
22 | COc1cc(OC)cc(Oc2ncccc2-c2n[nH]c(N(C)c3ccncc3)n2)c1 | 44% | 68% |  |  | 

Row | Compound | inhibition at 0.1 µM (A-431 [1]) | inhibition (Tubulin (Bos taurus) [2]) | EC50 (A-431 [3]) | inhibition (Tubulin (Bos taurus) [4]) | also measured
23 | COc1cc(Nc2ncccc2-c2n[nH]c(Nc3ccccc3)n2)cc(OC)c1 | 22% | 5% | > 10000 nM |  | 
24 | COc1cc(OC)cc(Oc2ncccc2-c2n[nH]c(Nc3ccc4c(c3)OCCO4)n2)c1 | 89% | 100% | 3.6 nM | 88% | Ki (Tubulin): 20 nM
25 | Fc1cccc(Oc2ncccc2-c2n[nH]c(Nc3ccc4c(c3)OCO4)n2)c1 | 37% |  |  | 43% | 
26 | Fc1cc(F)cc(Oc2ncccc2-c2n[nH]c(Nc3ccc4c(c3)OCO4)n2)c1 | 23% |  |  | 97% | 
27 | COc1cccc(Nc2nnc(-c3cccnc3Nc3cc(OC)cc(OC)c3)[nH]2)c1 |  |  |  |  | Ki (Tubulin): 100 nM
28 | COc1cc2c(c(OC)c1OC)-c1ccc(O)cc1[C@@H](N)CC2 [COLCHINOL] |  |  | 43.5 nM |  | Ki (Tubulin): 1850 nM
29 | COc1cc(Nc2ncccc2-c2nnc(Nc3ccc4c(c3)OCCO4)[nH]2)cc(OC)c1 |  |  |  |  | Ki (Tubulin): 160 nM
30 | c1ccc(Oc2ncccc2-c2nc(Nc3ccc4c(c3)OCO4)n[nH]2)nc1 | 21% |  |  | 43% | 
31 | Fc1cc(F)cc(Nc2ncccc2-c2n[nH]c(Nc3ccc4c(c3)OCO4)n2)c1 |  | 28% |  |  | 
32 | O=C1CCCN1CCCNc1ncccc1-c1n[nH]c(Nc2ccc3c(c2)OCCO3)n1 |  | 21% |  |  | 
33 | Fc1ccc(CNc2ncccc2-c2n[nH]c(Nc3ccc4c(c3)OCCO4)n2)cc1F | 32% | 84% |  |  | 
34 | COc1cccc(Nc2n[nH]c(-c3cccnc3Nc3cc(OC)cc(OC)c3)n2)c1 | 72% | 80% | 90 nM |  | GI50 (SNB-19): 150 nM; GI50 (HCT-116): 400 nM; GI50 (A498): 60 nM; GI50 (SK-OV-3): 220 nM; GI50 (NCI/ADR-RES): 150 nM; GI50 (NCI-H460): 10 nM; GI50 (DLD-1): 70 nM; GI50 (A-431 [5]): 50 nM; GI50 (DU-145): 20 nM; GI50 (LoVo): 20 nM
35 | c1cncc(CCNc2ncccc2-c2n[nH]c(Nc3ccc4c(c3)OCCO4)n2)c1 |  | 23% |  |  | 
36 | COc1cc(Nc2ncccc2-c2n[nH]c(Nc3cc(Cl)cc(Cl)c3)n2)cc(OC)c1 |  | 44% |  |  | 
37 | COc1cc(OC)cc(Oc2ncccc2-c2n[nH]c(Nc3cccnc3)n2)c1 | 61% |  | 66 nM | 49% | 
38 | COc1cc(OC)cc(Oc2ncccc2-c2n[nH]c(Nc3cccc(O)c3)n2)c1 | 86% | 100% | 10 nM | 83% | 
39 | COc1ccc(C(=O)Nc2n[nH]c(-c3cccnc3Oc3cc(OC)cc(OC)c3)n2)cc1 |  |  |  | 8% | 
40 | COc1cc(Nc2ncccc2-c2nc(-c3cccc(OC)c3)n[nH]2)cc(OC)c1 |  | 15% |  |  | 
41 | COc1cc(Nc2ncccc2-c2nnc(Nc3ccc4c(c3)OCCO4)n2C)cc(OC)c1 | 25% |  | 240 nM | 64% | 
42 | c1cnc(NCc2ccncc2)c(-c2n[nH]c(Nc3ccc4c(c3)OCO4)n2)c1 | 70% | 84% | 66 nM |  | 
43 | COc1cc(OC)cc(Oc2ncccc2-c2n[nH]c(Nc3ccc4c(c3)OCO4)n2)c1 | 83% | 98% | 7.2 nM | 91% | Ki (Tubulin): 10 nM
44 | COc1cc(Nc2ncncc2-c2n[nH]c(Nc3ccc4c(c3)OCCO4)n2)cc(OC)c1 | 68% | 100% | 53 nM |  | 

Row | Compound | inhibition at 0.1 µM (A-431 [1]) | inhibition (Tubulin (Bos taurus) [2]) | EC50 (A-431 [3]) | inhibition (Tubulin (Bos taurus) [4]) | also measured
45 | COc1cc(OC)cc(Oc2cnccc2-c2n[nH]c(Nc3ccc4c(c3)OCCO4)n2)c1 | 40% |  | 210 nM | 59% | 
46 | COc1cc(OC)cc(Oc2ncccc2-c2nc(N(C)c3cccc(OC)c3)n[nH]2)c1 |  |  |  | 5% | 
47 | COc1cc(Nc2ncccc2-c2n[nH]c(Nc3ccc(C#N)cc3)n2)cc(OC)c1 |  | 34% |  |  | 
48 | COc1cc(OC)cc(Oc2ccccc2-c2n[nH]c(Nc3ccc4c(c3)OCCO4)n2)c1 | 82% |  | 6.6 nM | 65% | 
49 | COc1cccc(Cc2n[nH]c(-c3cccnc3Nc3cc(OC)cc(OC)c3)n2)c1 |  | 9% |  |  | 
50 | COc1cc(OC)cc(Oc2ncccc2-c2n[nH]c(Nc3cc(F)cc(F)c3)n2)c1 | 27% | 87% |  | 51% | 
51 | COc1cc(Nc2ccncc2-c2n[nH]c(Nc3ccc4c(c3)OCO4)n2)cc(OC)c1 | 84% | 100% | 9.4 nM |  | 
52 | COc1cc(OC)cc(Oc2ncccc2-c2nnc(Nc3ccc4c(c3)OCCO4)n2C)c1 |  |  |  | 30% | 
53 | COc1cc(Nc2ncccc2-c2nc(Nc3ccc4c(c3)OCCO4)n(C)n2)cc(OC)c1 | 26% | 76% | 130 nM |  | 
54 | COc1cc(Nc2ncccc2-c2n[nH]c(Nc3ccc4c(c3)OCO4)n2)cc(OC)c1 | 85% | 87% | 62 nM |  | Ki (Tubulin): 60 nM
55 | COc1ccc(CNc2n[nH]c(-c3cccnc3Oc3cc(OC)cc(OC)c3)n2)cc1 | 28% | 86% |  |  | 
56 | COc1cc2c(c(OC)c1OC)-c1ccc(OC)c(=O)cc1[C@@H](NC(C)=O)CC2 [COLCHICINE] | 80% |  | 2.8 nM |  | 
57 | COc1cc(Nc2ncccc2-c2nc(Nc3ccc(OC)cc3OC)n[nH]2)cc(OC)c1 | 17% | 47% |  |  | 
58 | COc1cccc(Nc2n[nH]c(-c3cccnc3Nc3cc(F)cc(F)c3)n2)c1 |  | 0% |  |  | 
59 | COc1cc(Nc2ncccc2-c2n[nH]c(Nc3ccc4c(c3)OCCO4)n2)cc(OC)c1 | 83% | 95% | 117 nM |  | 
60 | COc1cccc(CNc2n[nH]c(-c3cccnc3Nc3cc(OC)cc(OC)c3)n2)c1 | 71% | 100% | 120 nM |  | 
61 | COc1cc(OC)cc(Oc2ncccc2-c2n[nH]c(NCc3ccc4c(c3)OCO4)n2)c1 | 24% |  |  | 90% | 
62 | COc1cc(Nc2nccnc2-c2n[nH]c(Nc3ccc4c(c3)OCO4)n2)cc(OC)c1 | 85% | 89% | 17 nM |  | 
63 | COc1cc(O)cc(Oc2ncccc2-c2n[nH]c(Nc3ccc4c(c3)OCO4)n2)c1 | 83% |  | 12 nM | 80% | 
64 | COc1cc(OC)cc(Oc2ncccc2-c2n[nH]c(Nc3ccc(C#N)cc3)n2)c1 | 27% | 97% |  | 57% | 
